Data on 17 compounds can be found in patent US9326516B2, “Molecules having certain pesticidal utilities, and intermediates, compositions, and processes related thereto” (Dow AgroSciences LLC, priority 2014, dated 2016).

The structures appear in SMILES notation.

Assay type in all cases: in vivo
In experiment [1] the test system is Beet Armyworm (Spodoptera exigua, LAPHEG). The experiment can be described thus: Bioassay on Beet Armyworm (BAW), 128-well diet tray assay. To be noted: 168 h, 50 μg/cm^2 on artificial diet, second instar BAW larvae, 25° C., five to seven days, average of eight wells, read-out: BAW % Control (or Mortality) rating. The procedure: (§1) Certain molecules disclosed in this document were tested against BAW and CEW using procedures described in the following examples. In the reporting of the results, the “BAW & CL Rating Table” was used (See Table Section).
Bioassays on BAW were conducted using a 128-well diet tray assay. one to five second instar BAW larvae were placed in each well (3 mL) of the diet tray that had been previously filled with 1 mL of artificial diet to which 50 μg/cm^2 of the test compound (dissolved in 50 μL of 90:10 acetone-water mixture) had been applied (to each of eight wells) and then allowed to dry. Trays were covered with a clear self-adhesive cover and held at 25° C., 14:10 light-dark for five to seven days. Percent mortality was recorded for the larvae in each well; activity in the eight wells was then averaged. The results are indicated in the table entitled “Table ABC: Biological Results” (See Table Section).

In experiment [2] the test system is Cabbage Looper (Trichoplusia ni, TRIPNI). The experiment can be described thus: Bioassay on Cabbage Looper (CL), 128-well diet tray assay. To be noted: 168 h, 50 μg/cm^2 on artificial diet, second instar CL larvae, 25° C., five to seven days, average of eight wells, read-out: CL % Control (or Mortality) rating. The procedure:
as §1
Bioassays on CL were conducted using a 128-well diet tray assay, one to five second instar CL larvae were placed in each well (3 mL) of the diet tray that had been previously filled with 1 mL of artificial diet to which 50 μg/cm^2 of the test compound (dissolved in 50 μL of 90:10 acetone-water mixture) had been applied (to each of eight wells) and then allowed to dry. Trays were covered with a clear self-adhesive cover and held at 25° C., 14:10 light-dark for five to seven days. Percent mortality was recorded for the larvae in each well; activity in the eight wells was then averaged. The results are indicated in the table entitled “Table ABC: Biological Results” (See Table Section).

Experiment [3] deals with Green Peach Aphid (Myzus persicae, MYZUPE). The experiment can be described thus: Bioassay on Green Peach Aphid (GPA), foliar spray on cabbage seedlings. To be noted: 72 h, 200 ppm spray on infested cabbage seedlings, graded after three days, Abbott corrected % control, read-out: GPA % Control (or Mortality) rating. As to the method: Certain molecules disclosed in this document were tested against GPA using procedures described in the following example. In the reporting of the results, the “GPA Rating Table” was used (See Table Section).
Cabbage seedlings grown in 3-inch pots, with 2-3 small (3-5 cm) true leaves, were used as test substrate. The seedlings were infested with 20-50 GPA (wingless adult and nymph stages) one day prior to chemical application. Four pots with individual seedlings were used for each treatment. Test compounds (2 mg) were dissolved in 2 mL of acetone/methanol (1:1) solvent, forming stock solutions of 1000 ppm test compound. The stock solutions were diluted 5× with 0.025% Tween 20 in water to obtain the solution at 200 ppm test compound. A hand-held aspirator-type sprayer was used for spraying a solution to both sides of […] leaves until runoff. Reference plants (solvent check) were sprayed with the diluent only containing 20% by volume of acetone/methanol (1:1) solvent. Treated plants were held in a holding room for three days at approximately 25° C. and ambient relative humidity (RH) prior to grading. Evaluation was conducted by counting the number of live aphids per plant under a microscope. Percent Control was measured by using Abbott's correction formula (W. S. Abbott, “A Method of Computing the Effectiveness of an Insecticide” J. Econ. Entomol. 18 (1925), pp. 265-267) as follows. Corrected % Control=100*(X−Y)/X where X=No. of live aphids on solvent check plants and Y=No. of live aphids on treated plants

With `FC(F)(F)Oc1ccc(-n2cnc(-c3ccc(NC4=NC(c5ccc(Cl)cc5)CO4)cc3)n2)cc1` (stereo not drawn) [Compound F3, 4-(4-Chlorophenyl)-N-(4-(1-(4-(trifluoromethoxy)phenyl)-1H-1,2,4-triazol-3-yl)phenyl)-4,5-dihydrooxazol-2-amine], the mortality at 50 µg/cm2 in experiment [1] and in experiment [2] was 50 to 100% in each case. The mortality at 200 ppm in experiment [3] is 0 to 80%.

For `Cc1ccc(C2COC(Nc3ccc(-c4ncn(-c5ccc(OC(F)(F)F)cc5)n4)cc3)=N2)cc1` (stereo not drawn) [Compound F4, 4-(p-Tolyl)-N-(4-(1-(4-(trifluoromethoxy)phenyl)-1H-1,2,4-triazol-3-yl)phenyl)-4,5-dihydrooxazol-2-amine], the mortality at 50 µg/cm2 in experiment [1] is 0%; in experiment [2], 50 to 100%. Further, in experiment [3], the mortality at 200 ppm stood at 0%.

For `COc1ccc(C2COC(Nc3ccc(-c4ncn(-c5ccc(OC(F)(F)F)cc5)n4)cc3)=N2)cc1` (stereo not drawn) [Compound F6, 4-(4-Methoxyphenyl)-N-(4-(1-(4-(trifluoromethoxy)phenyl)-1H-1,2,4-triazol-3-yl)phenyl)-4,5-dihydrooxazol-2-amine], the mortality at 50 µg/cm2 in experiment [1] and in experiment [2] was 50 to 100% in each case. Besides, the mortality at 200 ppm in experiment [3] stood at 0%.

As for `FC(F)(F)Oc1ccc(-n2cnc(-c3ccc(NC4=NC(c5ccccc5)CO4)cc3)n2)cc1` (stereo not drawn) [Compound F7, 4-Phenyl-N-(4-(1-(4-(trifluoromethoxy)phenyl)-1H-1,2,4-triazol-3-yl)phenyl)-4,5-dihydrooxazol-2-amine], the mortality at 50 µg/cm2 in experiment [1] and in experiment [2] was 50 to 100% in each case. For the same compound, in experiment [3], the mortality at 200 ppm lay within 80 to 100%.

For `Fc1ccc(C2COC(Nc3ccc(-c4ncn(-c5ccc(OC(F)(F)F)cc5)n4)cc3)=N2)cc1` (stereo not drawn) [Compound F8, 4-(4-Fluorophenyl)-N-(4-(1-(4-(trifluoromethoxy)phenyl)-1H-1,2,4-triazol-3-yl)phenyl)-4,5-dihydrooxazol-2-amine], the mortality at 50 µg/cm2 in experiment [1] and in experiment [2] was 50 to 100% throughout. For the same compound, in experiment [3], the mortality at 200 ppm fell in the range of 0 to 80%.

For `FC(F)(F)Oc1ccc(-n2cnc(-c3ccc(NC4=NC(c5ccc(Br)cc5)CO4)cc3)n2)cc1` (stereo not drawn) [Compound F9, 4-(4-Bromophenyl)-N-(4-(1-(4-(trifluoromethoxy)phenyl)-1H-1,2,4-triazol-3-yl)phenyl)-4,5-dihydrooxazol-2-amine], the mortality at 50 µg/cm2 in experiment [1] and in experiment [2] was 50 to 100% each time. In addition, the mortality at 200 ppm in experiment [3] was in the range of 80 to 100%.

As for `FC(F)(F)Oc1ccc(-n2cnc(-c3ccc(NC4=NC(c5cccc(Cl)c5)CO4)cc3)n2)cc1` (stereo not drawn) [Compound F10, 4-(3-Chlorophenyl)-N-(4-(1-(4-(trifluoromethoxy)phenyl)-1H-1,2,4-triazol-3-yl)phenyl)-4,5-dihydrooxazol-2-amine], the mortality at 50 µg/cm2 in experiment [1] was 0%; in experiment [2] it was 50 to 100%. Also, the mortality at 200 ppm in experiment [3] was found to be 0%.

As for `COc1ccc(C2COC(Nc3ccc(-c4ncn(-c5ccc(C(F)(F)F)cc5)n4)cc3)=N2)cc1` (stereo not drawn) [Compound F12, 4-(4-Methoxyphenyl)-N-(4-(1-(4-(trifluoromethyl)phenyl)-1H-1,2,4-triazol-3-yl)phenyl)-4,5-dihydrooxazol-2-amine], the mortality at 50 µg/cm2 in experiment [1] and in experiment [2] was 0% each time. For the same compound, the mortality at 200 ppm in experiment [3] was found to be 0%.

Take `Cc1ccc(C2COC(Nc3ccc(-c4ncn(-c5ccc(C(F)(F)F)cc5)n4)cc3)=N2)cc1` (stereo not drawn) [Compound F13, 4-(p-Tolyl)-N-(4-(1-(4-(trifluoromethyl)phenyl)-1H-1,2,4-triazol-3-yl)phenyl)-4,5-dihydrooxazol-2-amine]: the mortality at 50 µg/cm2 in experiment [1] and in experiment [2] was 0% each time. Besides, the mortality at 200 ppm in experiment [3] is 0%.

With `FC(F)(F)c1ccc(-n2cnc(-c3ccc(NC4=NC(c5ccccc5)CO4)cc3)n2)cc1` (stereo not drawn) [Compound F14, 4-Phenyl-N-(4-(1-(4-(trifluoromethyl)phenyl)-1H-1,2,4-triazol-3-yl)phenyl)-4,5-dihydrooxazol-2-amine], the mortality at 50 µg/cm2 in experiment [1] and in experiment [2] was 0% each time. For the same compound, in experiment [3], the mortality at 200 ppm came to 0%.

In the case of `Fc1ccc(C2COC(Nc3ccc(-c4ncn(-c5ccc(C(F)(F)F)cc5)n4)cc3)=N2)cc1` (stereo not drawn) [Compound F15, 4-(4-Fluorophenyl)-N-(4-(1-(4-(trifluoromethyl)phenyl)-1H-1,2,4-triazol-3-yl)phenyl)-4,5-dihydrooxazol-2-amine], the mortality at 50 µg/cm2 in experiment [1] and in experiment [2] was 50 to 100% each time. In experiment [3], the mortality at 200 ppm worked out at 0%.

As to `FC(F)(F)c1ccc(-n2cnc(-c3ccc(NC4=NC(c5ccc(Cl)cc5)CO4)cc3)n2)cc1` (stereo not drawn) [Compound F16, 4-(4-Chlorophenyl)-N-(4-(1-(4-(trifluoromethyl)phenyl)-1H-1,2,4-triazol-3-yl)phenyl)-4,5-dihydrooxazol-2-amine], the mortality at 50 µg/cm2 in experiment [1] and in experiment [2] was 50 to 100% throughout. Moreover, in experiment [3], the mortality at 200 ppm fell in the range of 80 to 100%.

Regarding `FC(F)(F)Oc1ccc(C2COC(Nc3ccc(-c4ncn(-c5ccc(C(F)(F)F)cc5)n4)cc3)=N2)cc1` (stereo not drawn) [Compound F17, 4-(4-(Trifluoromethoxy)phenyl)-N-(4-(1-(4-(trifluoromethyl)phenyl)-1H-1,2,4-triazol-3-yl)phenyl)-4,5-dihydrooxazol-2-amine], the mortality at 50 µg/cm2 in experiment [1] and in experiment [2] was 50 to 100% in each case. In addition, the mortality at 200 ppm in experiment [3] was determined as 0%.

In the case of `FC(F)(F)c1ccc(-n2cnc(-c3ccc(NC4=NC(c5cccc(Cl)c5)CO4)cc3)n2)cc1` (stereo not drawn) [Compound F18, 4-(3-Chlorophenyl)-N-(4-(1-(4-(trifluoromethyl)phenyl)-1H-1,2,4-triazol-3-yl)phenyl)-4,5-dihydrooxazol-2-amine], the mortality at 50 µg/cm2 in experiment [1] and in experiment [2] was 50 to 100% in each case. Moreover, the mortality at 200 ppm in experiment [3] worked out at 0%.

On to `FC(F)(F)c1ccc(-n2cnc(-c3ccc(NC4=NC(c5ccccc5Cl)CO4)cc3)n2)cc1` (stereo not drawn) [Compound F19, 4-(2-Chlorophenyl)-N-(4-(1-(4-(trifluoromethyl)phenyl)-1H-1,2,4-triazol-3-yl)phenyl)-4,5-dihydrooxazol-2-amine], for which the mortality at 50 µg/cm2 in experiment [1] was 0%; in experiment [2] it was 50 to 100%. In experiment [3], the mortality at 200 ppm came to 0%.

Turning to `COc1ccc(C2CSC(Nc3ccc(-c4ncn(-c5ccc(OC(F)(F)F)cc5)n4)cc3)=N2)cc1` (stereo not drawn) [Compound F21, 4-(4-Methoxyphenyl)-N-(4-(1-(4-(trifluoromethoxy)phenyl)-1H-1,2,4-triazol-3-yl)phenyl)-4,5-dihydrothiazol-2-amine], the mortality at 50 µg/cm2 in experiment [1] is 50 to 100%; in experiment [2], 0%. In experiment [3], the mortality at 200 ppm amounted to 0%.

Regarding `Cc1ccc(C2CSC(Nc3ccc(-c4ncn(-c5ccc(OC(F)(F)F)cc5)n4)cc3)=N2)cc1` (stereo not drawn) [Compound F22, 4-(p-Tolyl)-N-(4-(1-(4-(trifluoromethoxy)phenyl)-1H-1,2,4-triazol-3-yl)phenyl)-4,5-dihydrothiazol-2-amine], the mortality at 50 µg/cm2 in experiment [1] and in experiment [2] was 0% each time. For the same compound, the mortality at 200 ppm in experiment [3] turned out to be 0%.

By mortality is commonly meant the share of the test organisms that died.
